# Laboratory results from patent US20080220084A1, “COMBINATION THERAPY FOR ALLEVIATING PAIN-RELATED CONDITIONS” (Pfantastic Medical Research Institute, LLC, priority 2007, published 2008).
# Test system: chronic low back pain
# Test: Treatment of low back pain (herniated disc, lumbar spinal canal stenosis), single-subject case
# Assay type: in vivo, human
# Details: person, before the composition
# Description: The acute pain was managed by a combination of pain killer medication and a series of physical therapies at that time. However, chronic low back pain remained ever since. […] The patient was also subjected to a series of disc decompression treatments (20 treatment sessions).
# No medication and other treatment were applied prior to taking the composition of the present invention. Two pills (0.5 g each) of the composition of the present invention were taken by the patient every morning and at night (twice a day). Each pill was composed of Rhizoma Gastrodiae Elatae (˜30-60 mg), dry powder of Manitis (˜70-105 mg), dry powder of Agkistrodon seu Bungarus (˜25-40 mg), roots of Radix Aconiti Lateralis Preparata (˜50-90 mg) and Radix Paeoniae Lactiflorae (˜50-90 mg), Herba Asari cum Radice (˜25-40 mg), Cornu cervi Parvum (˜70-100 mg), Eupolyphaga seu Opisthoplatia (˜25-45 mg), and Sulindac (30 mg). Total daily dosage of Sulindac was 120 mg, which is lower than recommended dosage (400 mg/day). Sulindac is a NSAID for the treatment of arthritis, but not proposed for the treatment of sciatica nerve pain.
compound,measurement,value
Cc1ccc(-c2cc(C(F)(F)F)nn2-c2ccc(S(N)(=O)=O)cc2)cc1 [Celebrex],pain reduction by earlier prescribed medication,not effective in reducing the pain
